{"source": "paper PMC6950563", "about": "“Epinecidin-1 Protects against Methicillin Resistant Staphylococcus aureus Infection and Sepsis in Pyemia Pigs” (Marine Drugs, 2019)", "key": {"MRSA [1]": {"tested_on": "MRSA", "type": "cell-based, Staphylococcus aureus", "conditions": "for pathogens killed (time-kill): 4 h", "description": "At 4, 8, 12, and 24 h post-treatment, the number of viable bacteria (CFU) was determined for the time-kill experiment."}, "in vivo": {"experiment": "in vivo", "conditions": "pig, iv", "procedure": "(§1) Approximately 3 mL of blood was taken from the carotid artery at 0, 10, 20, 30, and 60 minutes and at 60 minutes intervals thereafter until 600 minutes had passed."}, "[2]": {"conditions": "pigs", "procedure": "as §1"}, "[3]": {"conditions": "25% human serum in RPMI, 37 °C, LC-MS/MS", "description": "Human serum (catalogue number BP2657100, Fisher Scientific, Millersburg, PA, USA) was suspended in RPMI medium up to 25%, and 0.990 mL was transferred to a 1.5 mL micro centrifuge tube. The serum-containing tube was incubated at 37 °C for 15 min, and 10 mg/mL Epi-1 was added to obtain a final peptide concentration of 100 μg/mL. At constant time intervals 100 μL of the experimental mix was taken out, and serum protein was precipitated in two volumes of 95% ethanol solution. The cloudy precipitate was cooled at 4 °C for 15 min, and then the serum was precipitated and pelleted by centrifugation at 18,000 × g for 2 min. The peptide stability in the supernatant was then analyzed by a liquid chromatography tandem mass spectrometer (LC-MS/MS) (Mission Biotech, Taipei, Taiwan)."}, "[4]": {"experiment": "Acute intravenous toxicity in pigs", "type": "in vivo, pig", "description": "Acute intravenous (i.v.) toxicity was analyzed as described previously. Acute i.v. toxicity was assessed after administration of 25, 50, 100, and 200 mg/kg body weight of Epi-1 in pigs; 1 to 5 animals per group. After injection, the animals were kept under visual observation up to 1 h, and the rate of mortality and clinical symptoms were recorded every 2 h for a total of 24 h. For blood analysis, 5 mL of heparin-stabilized blood was taken and stored at 4 °C. Serum was separated from the blood sample using a serum separator gel tube (catalogue number 367955, Becton-Dickinson, Franklin Park, NJ, USA), according to the vendor’s instructions. Serum GOT, GPT, UA, BUN, and CRT activity levels were determined using an automated analyzer (FUJI DRI-CHEM 4000i, Fujifilm, Tokyo, Japan) according to the manufacturers’ instructions. Standard controls were analyzed before each determination."}, "MRSA [5]": {"tested_on": "MRSA", "experiment": "Histopathology (H&E) of major organs of infected pigs", "type": "in vivo, pig", "conditions": "vancomycin 0.5 mg/kg, day 7", "description": "Tissue samples from the heart valve, left diaphragmatic lobe of the lung, left lateral lobe of the liver, and left kidney were collected and fixed in PBS buffer containing 4% formaldehyde for 24 h. Fixed samples were immersed in different concentrations of xylene and ethanol before embedding in paraffin. The processed samples were sectioned at 8–10 µm using a microtome. The sections were stained for histological analysis with hematoxylin and eosin (H&E) after rehydration."}, "MRSA [6]": {"tested_on": "MRSA", "experiment": "Survival of MRSA-infected pyemia pigs", "type": "in vivo, pig", "description": "Administration of bacteria or mock treatment followed by flushing with 5 mL of sterile isotonic saline was performed by i.v. through a 22G catheter inserted in the right femoral vein. The catheter was removed after administration. Another 22G catheter was then inserted into the left femoral vein and secured with stitches. The catheter was flushed with 10 mL sterile isotonic saline solution, and then with 2 mL of 100 I.U./mL sterile heparin solution (catalogue number H3149, Sigma Chemical Co., St. Louis, MO, USA) for blood sampling. During blood sampling, the initial 5 mL of blood was discarded to avoid the heparin carryover. Five pigs were inoculated with the MRSA strain (1 × 10^9 CFU/kg) only. […] Samples were subsequently collected for histopathology, microbial studies, and bacterial count."}, "[7]": {"conditions": "pig, Epi-1 200 mg/kg single i.v., n=1, died in one hour after injection"}}, "note": "Like-named read-outs stand apart in the source and are kept apart here. Residues, ends and D or L forms follow the SMILES beside them."}
{"smiles": "CC[C@H](C)[C@H](NC(=O)[C@H](CCSC)NC(=O)[C@H](CCCCN)NC(=O)CNC(=O)[C@H](C)NC(=O)[C@H](Cc1c[nH]cn1)NC(=O)[C@H](Cc1ccccc1)NC(=O)[C@H](CC(C)C)NC(=O)CNC(=O)[C@H](CCCCN)NC(=O)[C@@H](NC(=O)[C@@H](NC(=O)[C@H](Cc1c[nH]cn1)NC(=O)[C@H](Cc1ccccc1)NC(=O)[C@@H](NC(=O)[C@H](Cc1ccccc1)NC(=O)CN)[C@@H](C)CC)[C@@H](C)CC)[C@@H](C)CC)C(=O)N[C@@H](Cc1c[nH]cn1)C(=O)NCC(=O)N[C@@H](CC(C)C)C(=O)N[C@H](C(N)=O)C(C)C", "note": "[Epi-1, epinecidin-1] (H-GFIFHIIKGLFHAGKMIHGLV-NH2)", "values": [{"measurement": "pathogens killed (time-kill)", "setting": "MRSA [1]; 1", "value": 90, "unit": "%"}, {"measurement": "pathogens killed (time-kill)", "setting": "MRSA [1]; 2", "value": 90, "unit": "%"}, {"measurement": "half-life", "setting": "in vivo; plasma", "value": "~4", "unit": "h"}, {"measurement": "level at 5 h", "setting": "in vivo; serum, 0.5 mg/kg", "value": "2920 ± 957", "unit": "ng/mL"}, {"measurement": "level at 10 min", "setting": "in vivo; serum, 1.5 mg/kg", "value": "9061 ± 60", "unit": "ng/mL"}, {"measurement": "level at 5 h", "setting": "in vivo; serum, 1.5 mg/kg", "value": "3780 ± 219", "unit": "ng/mL"}, {"measurement": "level at 5 h", "setting": "in vivo; serum, 2.5 mg/kg", "value": "8880 ± 205", "unit": "ng/mL"}, {"measurement": "time post i.v. injection up to which Epi-1 is stable in serum", "setting": "[2]; i.v.", "value": "up to 4 h"}, {"measurement": "time post-injection up to which Epi-1 was detected in serum", "setting": "[2]; i.v.", "value": "up to 240 min"}, {"measurement": "concentration of free Epi-1 in serum, initial", "setting": "[3]; 15 min pre-incubation, nominal 100 µg/mL, ethanol precipitation, start, mean ± SEM, three independent experiments", "value": "7360 ± 300", "unit": "ng/mL"}, {"measurement": "time up to which the free Epi-1 concentration did not change (after the initial 30 min)", "setting": "[3]", "value": "up to 7 h"}, {"measurement": "time for which Epi-1 was stable in human serum in vitro", "setting": "[3]; Figure 2C", "value": "up to 400 min"}, {"measurement": "concentration of free Epi-1 in serum after the initial 30 min", "setting": "[3]; nominal 100 µg/mL, ethanol precipitation, 30 min, mean ± SEM, three independent experiments", "value": "5940 ± 120", "unit": "ng/mL"}, {"measurement": "BUN", "setting": "[4]; [7]", "value": "Died"}, {"measurement": "CRE", "setting": "[4]; [7]", "value": "Died"}, {"measurement": "GOT", "setting": "[4]; [7]", "value": "Died"}, {"measurement": "GPT", "setting": "[4]; [7]", "value": "Died"}, {"measurement": "Serum UA", "setting": "[4]; [7]", "value": "Died"}, {"measurement": "doses that did not cause abnormal behavior, mortality, or activity", "setting": "[4]; single i.v. injection, piglets starved 12 h, observed every 2 h up to 24 h", "value": "up to 100 mg/kg"}]}
{"smiles": "CN[C@H](CC(C)C)C(=O)N[C@H]1C(=O)N[C@@H](CC(N)=O)C(=O)N[C@H]2C(=O)N[C@H]3C(=O)N[C@H](C(=O)N[C@H](C(=O)O)c4cc(O)cc(O)c4-c4cc3ccc4O)[C@H](O)c3ccc(c(Cl)c3)Oc3cc2cc(c3O[C@@H]2O[C@H](CO)[C@@H](O)[C@H](O)[C@H]2O[C@H]2C[C@](C)(N)[C@H](O)[C@H](C)O2)Oc2ccc(cc2Cl)[C@H]1O", "note": "[vancomycin]", "values": [{"measurement": "killing of MRSA", "setting": "MRSA [1]; at 24 h, about 1 × 10^6 cells, Figure 1B", "value": 95, "unit": "%"}, {"measurement": "Heart: infective endocarditis (animals with clinical signs/total examined)", "setting": "MRSA [5]", "value": "0/5"}, {"measurement": "Kidney: cystic tubules, cortical (animals with clinical signs/total examined)", "setting": "MRSA [5]", "value": "0/5"}, {"measurement": "Liver: liver abscess (animals with clinical signs/total examined)", "setting": "MRSA [5]", "value": "1/5"}, {"measurement": "Lung: inflammation, pulmonary edema (animals with clinical signs/total examined)", "setting": "MRSA [5]", "value": "2/5"}, {"measurement": "course of the serum concentration of vancomycin", "setting": "[2]; vancomycin 0.5 mg/kg i.v., up to 360 min, LC-MS-MS, Supplementary Figure S1", "value": "very stable"}, {"measurement": "survival against MRSA infection", "setting": "MRSA [6]; MRSA 1 × 10^9 CFU/kg i.v., vancomycin 0.5 mg/kg i.v. 30 min post-infection, 7 days", "value": 80, "unit": "%"}, {"measurement": "Survival Rate (Day PI)", "setting": "MRSA [6]; MRSA 10^9 CFU/kg i.v., vancomycin 0.5 mg/kg, n=5", "value": 80}]}
